The text below walks through data of patent US11512053B2, “Arginine methyltransferase inhibitors and uses thereof” (priority 2013, dated 2022).

The target in the test is T1, human CARM1 (PRMT4) (Flag- and His-tagged) (Homo sapiens, UniProt Q86X55).
T1 construct: Flag-CARM1-His; made in house; host or cells: HEK 293F cells (BacMam baculovirus)
T1 sequence (Q86X55 1-585 isoform Q86X55-1): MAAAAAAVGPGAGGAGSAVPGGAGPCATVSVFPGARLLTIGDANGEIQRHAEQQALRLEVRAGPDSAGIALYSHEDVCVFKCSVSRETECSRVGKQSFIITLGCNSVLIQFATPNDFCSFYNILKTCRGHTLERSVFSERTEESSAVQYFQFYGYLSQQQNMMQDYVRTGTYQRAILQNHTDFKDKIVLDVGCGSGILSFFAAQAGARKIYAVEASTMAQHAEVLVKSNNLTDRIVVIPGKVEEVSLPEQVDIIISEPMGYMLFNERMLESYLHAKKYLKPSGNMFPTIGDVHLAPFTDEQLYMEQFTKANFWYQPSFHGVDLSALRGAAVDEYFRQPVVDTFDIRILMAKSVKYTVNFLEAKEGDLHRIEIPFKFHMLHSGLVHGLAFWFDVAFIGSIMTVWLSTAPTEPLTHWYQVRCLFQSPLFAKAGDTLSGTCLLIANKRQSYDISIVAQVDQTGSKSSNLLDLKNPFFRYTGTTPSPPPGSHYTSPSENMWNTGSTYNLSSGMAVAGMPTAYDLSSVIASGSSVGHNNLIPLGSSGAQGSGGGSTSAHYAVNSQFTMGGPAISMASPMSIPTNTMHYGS
As to the kind of experiment: CARM1 Biochemical Assay (3H-SAM Flashplate, peptide substrate). As to conditions: single experiment or average of multiple experiments. An excerpt: General Materials. S-adenosylmethionine (SAM), S-adenosylhomocysteine (SAH), bicine, Tween20, dimethylsulfoxide (DMSO), bovine skin gelatin (BSG), sodium butyrate and Tris(2-carboxyethyl)phosphine hydrochloride solution (TCEP) were purchased from Sigma-Aldrich at the highest level of purity possible. ^3H-SAM was purchase from American Radiolabeled Chemicals with a specific activity of 80 Ci/mmol. 384-well streptavidin Flashplates were purchased from PerkinElmer.
Substrates. Peptide representative of human histone H3 residues 16-30 was synthesized with an N-terminal linker-affinity tag motif and a C-terminal amide cap by 21st Century Biochemicals. The peptide was purified by high-performance liquid chromatography (HPLC) to greater than 95% purity and confirmed by liquid chromatography mass spectrometry (LC-MS). The sequence was Biot-Ahx-[…]-amide and contained a monomethylated arginine at position 26 (SEQ ID NO.:14).
Molecular Biology: Human CARM1 (PRMT4) (NM_199141.1) transcript clone was amplified from an HEK 293 cDNA library, incorporating a flanking 5′ sequence encoding a FLAG tag ([…]) (SEQ ID NO.:6) fused directly to Ala 2 of CARM1 and 3′ sequence encoding a hexa His sequence ([…]) (SEQ ID NO.:15) fused directly to Ser 608. The gene sequence encoding isoform1 containing a deletion of amino acids 539-561 was amplified subsequently and subcloned into pFastBacMam (Viva Biotech).
Protein Expression. Recombinant baculovirus were generated according to Bac-to-Bac kit instructions (Life Technologies). […] Infections were carried out at 37° C. for 48 hours, harvested by centrifugation, and stored at −80° C. for purification.
Protein Purification. […] Column was washed with 500 mM NaCl in buffer A and Flag-CARM1-His was eluted with 200 ug/ml FLAG peptide in buffer A. Pooled fractions were dialyzed in 20 mM Tris, 150 mM NaCl, 5% glycerol and 1 mM DTT, pH 7.8. The purity of recovered protein was 94.
General Procedure for CARM1 Enzyme Assays on Peptide Substrates. The assays were all performed in a buffer consisting of 20 mM Bicine (pH=7.6), 1 mM TCEP, 0.005% BSG, and 0.002% Tween 20, prepared on the day of use. Compounds in 100% DMSO (1 ul) were spotted into a polypropylene 384-well V-bottom plates (Greiner) using a Platemate Plus outfitted with a 384-channel head (Thermo Scientific). DMSO (1 ul) was added to Columns 11, 12, 23, 24, rows A-H for the maximum signal control and 1 ul of SAH, a known product and inhibitor of CARM1, was added to columns 11, 12, 23, 24, rows I-P for the minimum signal control. A cocktail (40 ul) containing the CARM1 enzyme was added by Multidrop Combi (Thermo-Fisher). The compounds were allowed to incubate with CARM1 for 30 min at room temperature, then a cocktail (10 ul) containing ^3H-SAM and peptide was added to initiate the reaction (final volume=51 ul). The final concentrations of the components were as follows: CARM1 was 0.25 nM, ^3H-SAM was 30 nM, peptide was 250 nM, SAH in the minimum signal control wells was 1 mM, and the DMSO concentration was 2%. The assays were stopped by the addition of non-radiolabeled SAM (10 ul) to a final concentration of 300 uM, which dilutes the ^3H-SAM to a level where its incorporation into the peptide substrate is no longer detectable. 50 ul of the reaction in the 384-well polypropylene plate was then transferred to a 384-well Flashplate and the biotinylated peptides were allowed to bind to the streptavidin surface for at least 1 hour before being washed once with 0.1% Tween20 in a Biotek ELx405 plate washer. The plates were then read in a PerkinElmer TopCount plate reader to measure the quantity of ^3H-labeled peptide bound to the Flashplate surface, measured as disintegrations per minute (dpm) or alternatively, referred to as counts per minute (cpm).
Where dpm=disintegrations per minute, cmpd=signal in assay well, and min and max are the respective minimum and maximum signal controls. […]

On to `CNCCN(C)Cc1c[nH]nc1C#Cc1ccccc1` [Compound 3], for which the IC50 was 1.23 µM.
